What is called inhibition is the drop in the measured response relative to a control, in per cent. For orientation: Cmax means the maximum level reached in the sampled fluid or tissue.

The text below walks through data of publication PMC3403540, “Active Hydrophilic Components of the Medicinal Herb Salvia miltiorrhiza (Danshen) Potently Inhibit Organic Anion Transporters 1 (Slc22a6) and 3 (Slc22a8)” (Evidence-based Complementary and Alternative Medicine : eCAM, 2012).

Structures are written as SMILES.

One data set has as its target T1, mOat3 (Mus musculus, UniProt O88909).
T1 construct: expressed in transfected cells; host or cells: CHO (Chinese hamster ovary), stably transfected (CHO-mOat3)
T1 sequence (O88909 1-537): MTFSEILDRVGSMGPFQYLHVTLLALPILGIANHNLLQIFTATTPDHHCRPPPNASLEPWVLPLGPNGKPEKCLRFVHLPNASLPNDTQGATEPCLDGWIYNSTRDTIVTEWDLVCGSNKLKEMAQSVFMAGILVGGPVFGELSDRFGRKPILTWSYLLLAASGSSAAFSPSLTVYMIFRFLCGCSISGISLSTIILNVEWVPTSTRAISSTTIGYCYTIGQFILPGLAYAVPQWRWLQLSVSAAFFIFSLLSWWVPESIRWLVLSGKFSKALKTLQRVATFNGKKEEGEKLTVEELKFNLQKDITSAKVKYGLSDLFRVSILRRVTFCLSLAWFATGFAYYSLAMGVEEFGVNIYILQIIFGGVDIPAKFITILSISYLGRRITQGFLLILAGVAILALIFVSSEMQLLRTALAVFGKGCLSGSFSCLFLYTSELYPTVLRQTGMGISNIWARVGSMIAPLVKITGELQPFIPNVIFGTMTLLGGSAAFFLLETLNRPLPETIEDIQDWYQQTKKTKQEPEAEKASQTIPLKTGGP
In words: Inhibition of mOat3-mediated [3H]ES uptake in CHO-mOat3 cells (cell accumulation assay). The data set is classed as cell-based, murine. The settings on record: for Ki / inhibition at 1000 µM: 1 μM [3H]ES; for Ki: 1 min, CHO-mOat3, mean ± S.E.M. (n = 3), from IC50 via Cheng-Prusoff, read-out: Estimated K i for mOat3-mediated transport; for inhibition at 1000 µM: 1 mM (1000 μM) inhibitor, 10 min, CHO-mOat3 cells, read-out: inhibition of mOat3-mediated ES uptake; for mode of inhibition of mOat3-mediated transport: mixed inhibition model, ES substrate. The procedure: Derivation of the stably transfected Chinese hamster ovary (CHO) cell lines expressing mOat1 (CHO-mOat1), mOat3 (CHO-mOat3), and the empty vector (FRT) transfected control cell line (CHO-FRT) was described previously.
Cell transport assay procedures were adapted from those previously published. In brief, 2 × 10^5 cells/well were seeded in 24-well tissue culture plates and grown in the absence of antibiotics for 48 hr. On the day of the experiment, cells were equilibrated with transport buffer for 10 min (500 μL of Hanks' balanced salt solution containing 10 mM HEPES, pH 7.4). […] After incubation, cells were immediately rinsed three times with ice-cold transport buffer, lysed, and analyzed via liquid scintillation counting. Uptake values were normalized to corresponding total protein content in cell lysates as determined by the Bradford method. Substrate accumulation is reported as picomoles of substrate per milligram protein. […] Kinetic calculations were performed using GraphPad Prism Software version 5.0 (GraphPad Software Inc., San Diego, CA, USA). Michaelis constant (K m) values were calculated by nonlinear regression using the Michaelis-Menten model. Mode of inhibition was identified by using mixed model inhibition analysis as follows: (1) Vmax Apparent =Vmax/(1+[I]/(α×Ki)),Km Apparent=Km1+[I]/Ki/(1+[I]/(α×Ki)),Y=Vmax Apparent×x/Km Apparent+x, where V max, K i, and I represent the maximum transport velocity without inhibitor, the inhibition constant generated from the data set under analysis, and the concentration of inhibitor, respectively. In this study, three curves were constructed (no inhibitor, plus two selected inhibitor concentrations) with uptake of substrate plotted as a function of its concentration for each condition. […] The parameter, α, can then be used to determine the mode of inhibition. When α is very large (α > 1), it indicates competitive inhibition. Otherwise, it indicates noncompetitive inhibition (α = 1) or uncompetitive inhibition (0 < α < 1). To estimate K i values, IC50 values were calculated using nonlinear regression and inserted into the Cheng-Prusoff equation: K i = IC50/(1 + [Substrate]/K m). Results were confirmed by repeating all experiments at least three times with triplicate wells for each data point in every experiment.
Figure 2 Inhibition profile of mOat1 and mOat3. […] (5 μM) by LSA, PCA, RMA, SAA, SAB, TSL, and probenecid (1000 μM) was measured in the CHO-mOat1 cells (10 min). […] (b) Inhibition of mOat3-mediated uptake of [^3H]ES (1 μM) by LSA, PCA, RMA, SAA, SAB, TSL, and probenecid (1000 μM) was measured in the CHO-mOat3 cells (10 min). […] Values are mean ± S.D. of triplicate values. ***denotes P < 0.001 as determined by one-way ANOVA followed by Dunnett's t-test.
Figure 5 K i determination for LSA, RMA, and SAA in the CHO-mOat3 cell line. One minute uptake of [^3H]ES (1 μM) in CHO-mOat3 cells was measured in the presence of increasing concentrations (10^−7 to 4 × 10^−4 M) of LSA, RMA, and SAA. Data were corrected for nonspecific background measured in the CHO-FRT cells prior to kinetic analysis. K i values were determined with non-linear regression and the “one-site competition” model using GraphPad Prism software. Graphs shown are from representative experiments with values plotted as mean ± S.D. (n = 3).

Details of data set [1]: method as in PMID 15866491. Particulars: healthy humans, i.v. dosing of a Danshen product; cited from earlier work.
The conditions of data set [2]: rats, cited from earlier work.
The conditions of data set [3]: rat plasma; cited from earlier work.

Consider `O=C(/C=C/c1ccc(O)c2c1[C@H](C(=O)O)[C@@H](c1ccc(O)c(O)c1)O2)O[C@H](Cc1ccc(O)c(O)c1)C(=O)O` [LSA, lithospermic acid], for which, on mOat3, the Ki was 31.1 ± 7 µM, the inhibition at 1000 µM was greater than 91% and the “mode of inhibition of mOat3-mediated transport” value is “competitive”. In addition, the Cmax in data set [1] was 2.1 µM.
Regarding `O=C(/C=C/c1ccc(O)c(O)c1)O[C@H](Cc1ccc(O)c(O)c1)C(=O)O` [RMA, rosmarinic acid], on mOat3, the Ki is 4.3 ± 0.2 µM, the inhibition at 1000 µM was greater than 91% and the “mode of inhibition of mOat3-mediated transport” value is listed as “competitive”. Besides, the Cmax in data set [1] was 6.7 µM.
In the case of `O=C(/C=C/c1ccc(O)c(O)c1/C=C/c1ccc(O)c(O)c1)O[C@H](Cc1ccc(O)c(O)c1)C(=O)O` [SAA, salvianolic acid A], on mOat3 (1 μM ES for 1 min, mean, α > 1 indicates competitive inhibition), the “Estimated α value from mixed inhibition model analysis, mOat3” value is 3.4 × 10^14. Besides, at mOat3, the Ki is 21.3 ± 7.7 µM, the inhibition at 1000 µM is greater than 91% and the “mode of inhibition of mOat3-mediated transport” value was “competitive”.
As to `O=C(O)C(O)Cc1ccc(O)c(O)c1` (centres unmarked) [TSL, tanshinol], at mOat3, the inhibition at 1000 µM was roughly 55%. In data set [2], the “increase of AUC on spiking additional SAA into Danshen preparations” value is reported as 26.7% and the “reduction of clearance on spiking additional SAA into Danshen preparations” value is on record as 32.9%. Moreover, in data set [2] (fold greater than the glomerular filtration rate), the “unbound renal clearance relative to glomerular filtration rate” value is recorded as ~ 5 X. In addition, the plasma protein binding in data set [3] is on record as 25%.
